# Values of other authors, collected in patent publication US11464768B2, “Pimavanserin alone or in combination for use in the treatment of Alzheimer's disease psychosis” (ACADIA Pharmaceuticals Inc., priority 2016, dated 2022).
# Conditions: tartrate salt; cited from earlier work
substance,measurement,value
"urea, N-[(4-fluorophenyl)methyl]-N-(1-methyl-4-piperidinyl)-N′-[[4-(2-methylpropoxy)phenyl]methyl]-,(2R,3R)-2,3-dihydroxybutanedioate (2:1) [Pimavanserin tartrate]",solubility in water,freely soluble in water
